From PubChem BioAssay AID210 (DTP/NCI, 2004)
Where “and” joins values, the source holds several entries; their conditions need not be identical. Equal values may be shown once. Inconclusive results and toxic doses are left out. Rule for the calls: active = survival T/C of 150% or more; inactive = T/C below 125% in these data.

System: CD2F1 mice, ip Colon 26 adenocarcinoma, median survival T/C
Test: NCI In Vivo Anticancer Drug Screen. Data for tumor model Colon 26 Adenocarcinoma (intraperitoneal) in CD2F1 (CDF1) mice
Settings: endpoint: median survival time, higher = longer survival
Description: The antitumor activity of compounds was measured in mice bearing transplantable tumors. Survival or tumor size were measured and the results are expressed as the measurement made in the treated group (T) divided by the measurement made in the vehicle treated control group (C). The tumor model used in this assay is Colon 26 Adenocarcinoma (intraperitoneal) in CD2F1 (CDF1) mice

[1] = dose: 0.5 mg/kg/injection, schedule: Q04DX003 (ip), vehicle: saline
[2] = dose: 1.0 mg/kg/injection, schedule: Q04DX003 (ip), vehicle: saline
[3] = dose: 2.0 mg/kg/injection, schedule: Q04DX003 (ip), vehicle: saline
[4] = dose: 12.5 mg/kg/injection, schedule: Q04DX003 (ip), vehicle: saline with Tween-80
[5] = dose: 25.0 mg/kg/injection, schedule: Q04DX003 (ip), vehicle: saline with Tween-80
[6] = dose: 50.0 mg/kg/injection, schedule: Q04DX003 (ip), vehicle: saline with Tween-80
[7] = dose: 100.0 mg/kg/injection, schedule: Q04DX003 (ip), vehicle: saline with Tween-80
[8] = dose: 200.0 mg/kg/injection, schedule: Q04DX003 (ip), vehicle: saline with Tween-80
[9] = dose: 400.0 mg/kg/injection, schedule: Q04DX003 (ip), vehicle: saline with Tween-80

Measured: T/C

O=C([O][Hg][CH2]C1COC([CH2][Hg][O]C(=O)c2ccccc2)CO1)c1ccccc1 (centres undefined)
inactive: dose: 37.5 mg/kg/injection, schedule: Q04DX003 (ip), vehicle: saline with Tween-80 89 % of control | dose: 75.0 mg/kg/injection, schedule: Q04DX003 (ip), vehicle: saline with Tween-80 94 % of control

CC1CC(C)CC(C)C(O)/C(C#N)=C/C=C/CC(C2CCCC2C(=O)O)OC(=O)CC(O)C(C)C1 (centres undefined)
inactive: [1] 103 % of control | [2] 105 % of control | [3] 100 % of control

CCC[P+](c1ccccc1)(c1ccccc1)c1ccccc1
inactive: dose: 3.12 mg/kg/injection, schedule: Q04DX003 (ip), vehicle: saline with Tween-80 112 % of control | dose: 6.25 mg/kg/injection, schedule: Q04DX003 (ip), vehicle: saline with Tween-80 107 % of control | [4] 104 % of control | [5] 110 % of control | [6] 110 % of control

COc1cc2c3cc1Oc1c(O)c(OC)cc4c1[C@H](Cc1ccc(cc1)Oc1cc(ccc1O)C[C@H]3N(C)CC2)N(C)CC4
inactive: dose: 5.0 mg/kg/injection, schedule: Q04DX003 (ip), vehicle: distilled water + Tween-80 95 % of control | dose: 10.0 mg/kg/injection, schedule: Q04DX003 (ip), vehicle: distilled water + Tween-80 103 % of control | dose: 20.0 mg/kg/injection, schedule: Q04DX003 (ip), vehicle: distilled water + Tween-80 97 % of control | dose: 40.0 mg/kg/injection, schedule: Q04DX003 (ip), vehicle: distilled water + Tween-80 115 % of control | dose: 40.0 mg/kg/injection, schedule: Q04DX003 (ip), vehicle: saline with Tween-80 95 % of control

COc1ccc(CC2C(=O)NC(C)C(=O)N(C)C3C(=O)N(C)C(Cc4ccc(O)c(c4)Oc4ccc(cc4)C3O)C(=O)NC(C)C(=O)NC(C)C(=O)N2C)cc1 (centres undefined)
inactive: [1] 98 % of control | [2] 101 % of control | dose: 1.08 mg/kg/injection, schedule: Q04DX003 (ip), vehicle: other 91 % of control | dose: 1.8 mg/kg/injection, schedule: Q04DX003 (ip), vehicle: other 113 % of control | [3] 92 % of control | dose: 3.0 mg/kg/injection, schedule: Q04DX003 (ip), vehicle: other 120 % of control | dose: 5.0 mg/kg/injection, schedule: Q04DX003 (ip), vehicle: other 114 % of control

Nc1nc2c(ncn2C2OC(CO)C(O)C2N)c(=O)[nH]1 (centres undefined)
inactive: dose: 3.0 mg/kg/injection, schedule: Q04DX002 (ip), vehicle: saline with Tween-80 95 % of control | dose: 6.0 mg/kg/injection, schedule: Q04DX002 (ip), vehicle: saline with Tween-80 105 % of control | dose: 12.0 mg/kg/injection, schedule: Q04DX002 (ip), vehicle: saline with Tween-80 88 % of control | dose: 24.0 mg/kg/injection, schedule: Q04DX002 (ip), vehicle: saline with Tween-80 88 % of control | dose: 48.0 mg/kg/injection, schedule: Q04DX002 (ip), vehicle: saline with Tween-80 96 % of control | dose: 96.0 mg/kg/injection, schedule: Q04DX002 (ip), vehicle: saline with Tween-80 93 % of control

CCC1CN2C(=N1)c1ccccc1-c1cc(Cl)ccc12 (centres undefined)
inactive: dose: 2.5 mg/kg/injection, schedule: Q04DX003 (ip), vehicle: saline 102 % of control | dose: 2.5 mg/kg/injection, schedule: Q04DX003 (ip), vehicle: suspension in saline 107 % of control | dose: 5.0 mg/kg/injection, schedule: Q04DX003 (ip), vehicle: saline 111 % of control | dose: 5.0 mg/kg/injection, schedule: Q04DX003 (ip), vehicle: suspension in saline 101 % of control | dose: 10.0 mg/kg/injection, schedule: Q04DX003 (ip), vehicle: saline 92 % of control | dose: 10.0 mg/kg/injection, schedule: Q04DX003 (ip), vehicle: suspension in saline 106 % of control | dose: 40.0 mg/kg/injection, schedule: Q04DX003 (ip), vehicle: saline 121 % of control | dose: 40.0 mg/kg/injection, schedule: Q04DX003 (ip), vehicle: suspension in saline 124 % of control

Clc1ccc(C(c2ccccc2Cl)C(Cl)Cl)cc1 (centres undefined)
inactive: [5] 110 % of control | [6] 98 % of control | [7] 96 % of control | [8] 104 % of control | [9] 96 % of control

CCCCCCCC(=O)OCC(=O)[C@]1(O)Cc2c(O)c3c(c(O)c2[C@@H](OC2CC(N)C(O)C(C)O2)C1)C(=O)c1c(OC)cccc1C3=O (some centres undefined)
inactive: dose: 4.5 mg/kg/injection, schedule: Q07DX003 (iv), vehicle: saline 112 % of control | dose: 7.0 mg/kg/injection, schedule: Q07DX003 (iv), vehicle: saline 112 % of control

O=Cc1ccc(C(Cl)(Cl)Cl)cc1
inactive: [4] 103 % of control and 107 % of control | [5] 106 % of control and 109 % of control | [6] 114 % of control and 98 % of control | [7] 96 % of control | [8] 98 % of control | [9] 103 % of control
